Reference: ChEMBL document CHEMBL1151474, “Replication of Colonic Crohn's Disease Mucosal Escherichia coli Isolates within Macrophages and Their Susceptibility to Antibiotics” (Antimicrob Agents Chemother, 2008)
In brackets after ≈: the same amount, converted by molar mass. Activity calls are given as the source filed them. The rule behind the calls is not given here.

How the values were obtained:
Escherichia coli [1] = assay: Antibacterial activity against Escherichia coli isolate HM154 isolated from colonic mucosal biopsies of patient with Crohn's disease after 24 hrs by Etest antibiotic concentration gradient method; format: functional; details: isolate HM154, 24 h
Escherichia coli [2] = assay: Antibacterial activity against Escherichia coli isolate HM95 isolated from ileal mucosal biopsies of patient with Crohn's disease after 24 hrs by Etest antibiotic concentration gradient method; format: functional; details: isolate HM95, 24 h
Escherichia coli [3] = assay: Antibacterial activity against mucosa-associated Escherichia coli isolate HM484 isolated from patient with irritable bowel syndrome or sporadic polyps after 24 hrs by Etest antibiotic concentration gradient method; details: isolate HM484, 24 h
Escherichia coli [4] = assay: Antibacterial activity against gentamicin-treated internalized Escherichia coli isolate HM580 in mouse J774A1 cells isolated from colonic mucosal biopsies of patient with Crohn's disease assessed as intracellular killing of bacteria at 10% compound Cmax after 3 hrs; format: functional, J774.A1
Escherichia coli [5] = assay: Antibacterial activity against Escherichia coli isolate HM605 isolated from colonic mucosal biopsies of patient with Crohn's disease
Escherichia coli [6] = assay: Antibacterial activity against gentamicin-treated internalized Escherichia coli isolate HM615 in mouse J774A1 cells isolated from colonic mucosal biopsies of patient with Crohn's disease assessed as intracellular killing of bacteria at 10% compound Cmax after 3 hrs; format: functional, J774.A1
Escherichia coli [7] = assay: Antibacterial activity against mucosa-associated Escherichia coli isolate HM463 isolated from patient with irritable bowel syndrome or sporadic polyps after 24 hrs by Etest antibiotic concentration gradient method; details: isolate HM463, 24 h
Escherichia coli [8] = assay: Antibacterial activity against mucosa-associated Escherichia coli isolate HM488 isolated from patient with irritable bowel syndrome or sporadic polyps after 24 hrs by Etest antibiotic concentration gradient method; details: isolate HM488, 24 h
Escherichia coli [9] = assay: Antibacterial activity against gentamicin-treated internalized Escherichia coli isolate LF82 in mouse J774A1 cells isolated from chronic ileal lesions of patient with Crohn's disease assessed as intracellular killing of bacteria at 10% compound Cmax after 3 hrs; format: functional, J774.A1
Escherichia coli [10] = assay: Antibacterial activity against mucosa-associated Escherichia coli isolate HM454 isolated from patient with irritable bowel syndrome or sporadic polyps after 24 hrs by Etest antibiotic concentration gradient method; format: functional; details: isolate HM454, 24 h
Escherichia coli [11] = assay: Antibacterial activity against Escherichia coli isolate LF82 isolated from colonic mucosal biopsies of patient with Crohn's disease after 24 hrs by Etest antibiotic concentration gradient method; details: isolate LF82, 24 h
Escherichia coli [12] = assay: Antibacterial activity against mucosa-associated Escherichia coli isolate HM428 isolated from patient with irritable bowel syndrome or sporadic polyps after 24 hrs by Etest antibiotic concentration gradient method; format: functional; details: isolate HM428, 24 h
Escherichia coli [13] = assay: Antibacterial activity against mucosa-associated Escherichia coli isolate HM456 isolated from patient with irritable bowel syndrome or sporadic polyps after 24 hrs by Etest antibiotic concentration gradient method; format: functional; details: isolate HM456, 24 h
Escherichia coli [14] = assay: Antibacterial activity against Escherichia coli isolate HM615 isolated from colonic mucosal biopsies of patient with Crohn's disease after 24 hrs by Etest antibiotic concentration gradient method; format: functional; details: isolate HM615, 24 h
Escherichia coli [15] = assay: Antibacterial activity against gentamicin-treated internalized Escherichia coli isolate HM605 in mouse J774A1 cells isolated from colonic mucosal biopsies of patient with Crohn's disease assessed as intracellular killing of bacteria at 10% compound Cmax after 3 hrs; format: functional, J774.A1
Escherichia coli [16] = assay: Antibacterial activity against extracellular Escherichia coli isolate HM605 isolated from colonic mucosal biopsies of patient with Crohn's disease at 0.01 to 10 ug/ml after 3 hrs; format: functional, organism-based
Escherichia coli [17] = assay: Antibacterial activity against Escherichia coli isolate HM580 isolated from colonic mucosal biopsies of patient with Crohn's disease after 24 hrs by Etest antibiotic concentration gradient method; format: functional; details: isolate HM580, 24 h
J774.A1 = assay: Cytotoxicity against mouse J774A1 cells assessed as release of adenylate kinase at 100 ug/ml after 3 hrs […] relative to control; format: cell-based; details: j774.a1, 3 h
Escherichia coli [18] = assay: Antibacterial activity Escherichia coli isolate HM419 isolated from ileo-colonic mucosal biopsies of patient with Crohn's disease after 24 hrs by Etest antibiotic concentration gradient method; format: functional; details: isolate HM419, 24 h
Escherichia coli [19] = assay: Antibacterial activity Escherichia coli isolate HM413 isolated from ileo-colonic mucosal biopsies of patient with Crohn's disease after 24 hrs by Etest antibiotic concentration gradient method; format: functional; details: isolate HM413, 24 h

MIC (Escherichia coli [1]): ≤ 1 µg/mL
MIC (Escherichia coli [2]): ≤ 1 µg/mL
MIC (Escherichia coli [11]): ≤ 1 µg/mL
MIC (Escherichia coli [14]): ≤ 1 µg/mL
MIC (Escherichia coli [17]): ≤ 1 µg/mL
MIC (Escherichia coli [18]): ≤ 1 µg/mL
MIC (Escherichia coli [19]): ≤ 1 µg/mL
Compound: O=C(O)c1cn(C2CC2)c2cc(N3CCNCC3)c(F)cc2c1=O [CIPROFLOXACIN]
MIC (Escherichia coli [3]): ≤ 1 µg/mL
Activity (Escherichia coli [4]): 90.4%
MBC (Escherichia coli [5]): 0.3 µg/mL (≈ 0.905 µM)
Activity (Escherichia coli [6]): 83.8%
MIC (Escherichia coli [7]): ≤ 1 µg/mL
MIC (Escherichia coli [8]): ≤ 1 µg/mL
Activity (Escherichia coli [9]): 87.6%
MIC (Escherichia coli [10]): ≤ 1 µg/mL
MIC (Escherichia coli [12]): ≤ 1 µg/mL
MIC (Escherichia coli [13]): ≤ 1 µg/mL
Activity (Escherichia coli [15]): 86%
Activity (Escherichia coli [16]): Active
Activity (J774.A1): 90%
